Read-outs that look alike come from different tables or passages of the source.
Experiments:
Type in all cases: cell-based
[1] = tested on: T47D cells expressing mutant PI3Ka (H1047R); test: In vitro cell proliferation, T47D cells (CellTiter-Glo); conditions: inhibition of proliferation, read-out: Avg T-47D EC50
Summary of the method: (§1)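 1,500 cells/well seeded onto pre-stamped 10-pt dilution plates; T47D in RPMI + 10% FBS + insulin 0.2 units/mL, SKBR3 in McCoys 5a + 10% FBS. 72 h, 37 °C, 5% CO2. CTG readout. 0% = 0.1% DMSO, 100% = 10 uM Alpelisib; sigmoidal fit gives EC50.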

[2] = tested on: SKBR3 cells express WT PI3Ka; test: In vitro cell proliferation, SKBR3 cells (CellTiter-Glo); conditions: inhibition of proliferation
Summary of the method: as §1

[3] = tested on: phosphorylation of AKT (pAKT) in T47D cells expressing mutant PI3Ka (H1047R); test: In vitro cell pAKT (Ser473) HTRF, T47D cells; conditions: cellular pAKT, T47D cells, mutant PI3Ka (H1047R), 6 hours, read-out: Avg T-47D IC50
Summary of the method: (§2)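 Cells seeded on plates pre-stamped with 10-point compound dilutions, then grown 6 h at 37 °C (T47D in RPMI/10% FBS/insulin; SKBR3 in McCoy's 5a/10% FBS). Lysates read for pAKT Ser473 by HTRF after overnight antibody incubation. Inhibition normalised to 0.1% DMSO and 10 uM alpelisib; IC50 by four-parameter fit.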

[4] = tested on: phosphorylation of AKT (pAKT) in SKBR3 cells express WT PI3Ka; test: In vitro cell pAKT (Ser473) HTRF, SKBR3 cells; conditions: cellular pAKT
Summary of the method: as §2

| SMILES | EC50 ([1]; 72 hours) [µM] | EC50 ([2]; 72 hours) [µM] | IC50 [3] [µM] | IC50 ([4]; 6 hours) [µM] | IC50 ([4]; Homo sapiens, SK-BR-3, 6 h) [µM] | EC50 ([2]; Homo sapiens, SK-BR-3, 72 h) [µM] | EC50 ([1]; Homo sapiens, T47D, 72 h) [µM] | IC50 ([3]; Homo sapiens, T47D, 6 h) [µM] |
| --- | --- | --- | --- | --- | --- | --- | --- | --- |
| Cc1cc(C(C)Nc2ccccc2C(=O)O)c2cc(N3C[C@@H]4CCCC[C@H]4C3)n(C)c(=O)c2c1 (single isomer, unassigned) [Example 114] | > 15 | > 15 | > 15 | > 15 | – | – | – | – |
| Cc1cc(C(C)Nc2ccccc2C(=O)O)c2cc(N3C[C@H]4CCCC[C@@H]4C3)n(C)c(=O)c2c1 (single isomer, unassigned) [Example 115] | 0.001 to 0.5 | > 15 | > 15 | > 15 | – | – | – | – |
| Cc1cc(C(C)Nc2ccccc2C(=O)O)c2cc(N3CCN4CC(F)(F)CC4C3)n(C)c(=O)c2c1 (single isomer, unassigned) [Example 122] | 2 to 15 | > 15 | > 15 | > 15 | – | – | – | – |
| Cc1cc(C(C)Nc2ccccc2C(=O)O)c2cc(N3CCN4C(=O)CCC4C3)n(C)c(=O)c2c1 (single isomer, unassigned) [Example 123] | > 15 | > 15 | > 15 | > 15 | – | – | – | – |
| COc1cccc(C#Cc2cc3c(C(C)Nc4ccccc4C(=O)O)cc(C)cc3c(=O)n2C)c1 (single isomer, unassigned) [Example 125] | 2 to 15 | > 15 | > 15 | > 15 | – | – | – | – |
| Cc1cc(C(C)Nc2ccc(Cl)nc2C(=O)O)c2cc(N3Cc4ccc(F)cc4C3)n(C)c(=O)c2c1 (single isomer, unassigned) [Example 127] | 2 to 15 | > 15 | > 15 | > 15 | – | – | – | – |
| Cc1cc(C(C)Nc2ccccc2C(=O)O)c2cc(N3CCN(C(=O)OC(C)C)CC3)n(C)c(=O)c2c1 (single isomer, unassigned) [Example 131] | 2 to 15 | > 15 | > 15 | > 15 | – | – | – | – |
| CCOc1ccc(-c2cc3c(C(C)Nc4ccccc4C(=O)O)cc(C)cc3c(=O)n2C)cn1 (single isomer, unassigned) [Example 133] | 2 to 15 | > 15 | > 15 | > 15 | – | – | – | – |
| Cc1cc(C(C)Nc2ccccc2C(=O)O)c2cc(N3CCN4C(=O)CCC4C3)n(C)c(=O)c2c1 (single isomer, unassigned) [Example 134] | – | – | – | – | > 15 | > 15 | 2 to 15 | > 15 |
| CC(=O)N1CCC2(CC1)CCN(c1cc3c(C(C)Nc4ccccc4C(=O)O)cc(C)cc3c(=O)n1C)CC2 (single isomer, unassigned) [Example 135] | 2 to 15 | > 15 | > 15 | > 15 | – | – | – | – |
| Cc1cc(C(C)Nc2ccccc2C(=O)O)c2cc(N3CCN4CCC[C@@H]4C3)n(C)c(=O)c2c1 (single isomer, unassigned) [Example 137] | – | – | – | – | > 15 | > 15 | 0.5 to 2 | 0.001 to 0.5 |
| Cc1cc(C(C)Nc2ccccc2C(=O)O)c2cc(N3CCN4CCC[C@H]4C3)n(C)c(=O)c2c1 (single isomer, unassigned) [Example 138] | > 15 | – | > 15 | – | > 15 | > 15 | – | – |
| Cc1cc(C(C)Nc2ccccc2C(=O)O)c2cc(N3CCN4C(=O)OC[C@H]4C3)n(C)c(=O)c2c1 (single isomer, unassigned) [Example 141] | > 15 | – | > 15 | – | > 15 | > 15 | – | – |
| Cc1cc(C(C)Nc2ccccc2C(=O)O)c2cc(C#Cc3cccc(Cl)c3)n(C)c(=O)c2c1 (single isomer, unassigned) [Example 143] | – | – | > 15 | – | > 15 | > 15 | > 15 | – |
| Cc1cc(C(C)Nc2ccccc2C(=O)O)c2cc(N3CCN(c4ccc(C)nc4)CC3)n(C)c(=O)c2c1 (single isomer, unassigned) [Example 145] | – | – | – | – | 2 to 15 | 2 to 15 | 0.001 to 0.5 | 0.001 to 0.5 |
| Cc1cc(C(C)Nc2ccccc2C(=O)O)c2cc(N3CCN(c4ccc(C)nc4)CC3)n(C)c(=O)c2c1 (single isomer, unassigned) [Example 146] | 2 to 15 | > 15 | > 15 | > 15 | – | – | – | – |

Next, values leading:

| EC50 ([1]; 72 hours) [µM] | EC50 ([2]; 72 hours) [µM] | IC50 [3] [µM] | IC50 ([4]; 6 hours) [µM] | IC50 ([4]; Homo sapiens, SK-BR-3, 6 h) [µM] | EC50 ([2]; Homo sapiens, SK-BR-3, 72 h) [µM] | EC50 ([1]; Homo sapiens, T47D, 72 h) [µM] | IC50 ([3]; Homo sapiens, T47D, 6 h) [µM] | SMILES |
| --- | --- | --- | --- | --- | --- | --- | --- | --- |
| 0.001 to 0.5 | 2 to 15 | 0.001 to 0.5 | 2 to 15 | – | – | – | – | Cc1cc(C(C)Nc2ccccc2C(=O)O)c2cc(N3CCC4(CCN(CC(F)(F)F)CC4)CC3)n(C)c(=O)c2c1 (single isomer, unassigned) [Example 111] |
| 2 to 15 | > 15 | > 15 | – | > 15 | – | – | – | COCCC(=O)N1CCN(c2cc3c(C(C)Nc4ccccc4C(=O)O)cc(C)cc3c(=O)n2C)CC1 (single isomer, unassigned) [Example 112] |
| 0.001 to 0.5 | 2 to 15 | 0.5 to 2 | > 15 | – | – | – | – | COCCC(=O)N1CCN(c2cc3c(C(C)Nc4ccccc4C(=O)O)cc(C)cc3c(=O)n2C)CC1 (single isomer, unassigned) [Example 113] |
| 0.5 to 2 | > 15 | 0.001 to 0.5 | > 15 | – | – | – | – | Cc1cc(C(C)Nc2ccccc2C(=O)O)c2cc(N3CCN4CC(F)(F)CC4C3)n(C)c(=O)c2c1 (single isomer, unassigned) [Example 121] |
| 0.5 to 2 | > 15 | 2 to 15 | > 15 | – | – | – | – | Cc1cc(C(C)Nc2ccccc2C(=O)O)c2cc(N3CCN4C(=O)CCC4C3)n(C)c(=O)c2c1 (single isomer, unassigned) [Example 124] |
| 0.001 to 0.5 | > 15 | 0.001 to 0.5 | > 15 | – | – | – | – | COc1cccc(C#Cc2cc3c(C(C)Nc4ccccc4C(=O)O)cc(C)cc3c(=O)n2C)c1 (single isomer, unassigned) [Example 126] |
| 0.001 to 0.5 | 2 to 15 | 0.001 to 0.5 | 2 to 15 | – | – | – | – | Cc1cc(C(C)Nc2ccc(Cl)nc2C(=O)O)c2cc(N3Cc4ccc(F)cc4C3)n(C)c(=O)c2c1 (single isomer, unassigned) [Example 128] |
| 0.001 to 0.5 | – | 0.001 to 0.5 | – | > 15 | > 15 | – | – | CCOc1ccc(-c2cc3c(C(C)Nc4ccccc4C(=O)O)cc(C)cc3c(=O)n2C)cn1 (single isomer, unassigned) [Example 132] |
| 0.001 to 0.5 | 2 to 15 | 0.001 to 0.5 | 2 to 15 | – | – | – | – | CC(=O)N1CCC2(CC1)CCN(c1cc3c(C(C)Nc4ccccc4C(=O)O)cc(C)cc3c(=O)n1C)CC2 (single isomer, unassigned) [Example 136] |
| 0.5 to 2 | > 15 | 0.5 to 2 | > 15 | – | – | – | – | Cc1cc(C(C)Nc2ccccc2C(=O)O)c2cc(N3CCN4CCC[C@H]4C3)n(C)c(=O)c2c1 (single isomer, unassigned) [Example 139] |
| 0.5 to 2 | > 15 | 2 to 15 | > 15 | – | – | – | – | Cc1cc(C(C)Nc2ccccc2C(=O)O)c2cc(N3CCN4C(=O)OC[C@H]4C3)n(C)c(=O)c2c1 (single isomer, unassigned) [Example 142] |
| > 15 | > 15 | 0.5 to 2 | > 15 | – | – | – | – | Cc1cc(C(C)Nc2ccccc2C(=O)O)c2cc(C#Cc3cccc(Cl)c3)n(C)c(=O)c2c1 (single isomer, unassigned) [Example 144] |

From patent US20260078103A1, “ISOQUINOLONES AS PI3K INHIBITORS” (OnKure, Inc., priority 2022, published 2026)
